As usually defined, the EC50 is the midpoint of the concentration-response curve. In general, IC50 refers to the midpoint of a concentration-inhibition curve. Lower therefore signals greater potency in that assay. The melting point is the temperature of the solid-liquid transition.

This is an account of results in patent publication US6896900B2, “β-L-2'-deoxy-nucleosides for the treatment of HIV infection” (Emory University, priority 1998, dated 2005).

One series relates to HIV. The experiment in a line: Anti-HIV activity in CEM cells. The series is classed as cell-based. The following applies: for EC50: Human immunodeficiency virus 1, CCRF-CEM, read-out: Antiviral Activity EC50. The protocol:
(§1) The anti-HIV activity of L-2′-A-5-FddC and L-3′-A-5-FddC was tested in CEM and PBM cells.

A short description of series [1]: Cytotoxicity in CEM cells. The format is cell-based. As to conditions: human.
A further series has as its system HIV-1 (strain LAV). As to the kind of experiment: Inhibition of HIV-1 replication in human PBM cells (reverse transcriptase readout). The format is cell-based. As to conditions: for EC50: Human immunodeficiency virus 1, PBMC, 144 h, HIV-1 strain LAV, day 6, read-out: Antiviral Activity EC50. The method, then: Antiviral compositions can be screened in vitro for inhibition of HIV by various experimental techniques. One such technique involves measuring the inhibition of viral replication in human peripheral blood mononuclear (PBM) cells. The amount of virus produced is determined by measuring the quantity of virus-coded reverse transcriptase (RT), an enzyme found in retroviruses, that is present in the cell culture medium.
Three-day-old phytohemagglutinin-stimulated PBM cells (10^6 cells/ml) from hepatitis B and HIV-1 seronegative healthy donors were infected with HIV-1 (strain LAV) at a concentration of about 100 times the 50% tissue culture infectious done (TICD 50) per ml and cultured in the presence and absence of various concentrations of antiviral compounds.
Approximately one hour after infection, the medium, with the compound to be tested (2 times the final concentration in medium) or without compound, was added to the flasks (5 ml; final volume 10 ml). AZT was used as a positive control. The cells were exposed to the virus (about 2×10^5 dpm/ml, as determined by reverse transcriptase assay ) and then placed in a CO2 incubator. HIV-1 (strain LAV) was obtained from the Centers for Disease Control, Atlanta, Ga. The methods used for culturing the PBM cells, harvesting the virus and determining the reverse transcriptase activity were those described by McDougal et al. (J. Immun. Meth. 76, 171-183, 1985) and Spira et al., (J. Clin. Meth. 25, 97-99, 1987), except that fungizone was not included in the medium (see Schinazi, et al., Antimicrob. Agents Chemother. 32, 1784-1787 (1988); Antimicrob. Agents Chemother., 34: 1061-1067 (1990)).
On day 6, the cells and supernatant were transferred to a 15 ml tube and centrifuged at about 900 g for 10 minutes. Five ml of supernatant were removed and the virus was concentrated by centrifugation at 40,000 rpm for 30 minutes (Beckman 70.1 Ti rotor). The solubilized virus pellet was processed for determination of the levels of reverse transcriptase. Results are expressed in dpm/ml of sampled supernatant. Virus from smaller volumes of supernatant (1 ml) can also be concentrated by centrifugation prior to solubilization and determination of reverse transcriptase levels.
The median effective (EC50) concentration was determined by the median effect method (Antimicrob. Agents Chemother. 30, 491-498 (1986). Briefly, the percent inhibition of virus, as determined from measurements of reverse transcriptase, is plotted versus the micromolar concentration of compound. The EC50 is the concentration of compound at which ther is a 50% inhibition of viral growth.
as §1

The nature of series [2]: Cytotoxicity in uninfected human PBM cells (trypan blue cell count). The format is cell-based. As to conditions: mitogen-stimulated uninfected human PBM cells, six days. The protocol:
Mitogen stimulated uninfected human PBM cells (3.8×10^5 cells/ml) were cultured in the presence and absence of drug under similar conditions as those used for the antiviral assay described above. The cells were counted after six days using a hemacytometer and the trypan blue exclusion method, as described by Schinazi et al., Antimicrobial Agents and Chemotherapy, 22(3), 499 (1982). The IC50 is the concentration of compound which inhibits 50% of normal cell growth. The anti-HIV activity of L-2′-A-5-FddC and L-3′-A-5-FddC was tested in CEM and PBM cells.

In turn, `[N-]=[N+]=NC1C[C@H](CO)O[C@@H]1n1cc(F)c(N)nc1=O` (stereo partly drawn) [L-2′-A-5-FddC, β-L-(2′-azido)-2′,3′-dideoxy-5-fluorocytosine] yielded a melting point of 219 to 221 °C. In addition, in the series on HIV, the “Selectivity Index IC50/EC50” value was >30 and the EC50 came to 3900 nM. For the same molecule, the IC50 in series [1] was > 100000 nM. Besides, in the series on HIV-1 (strain LAV), the “Selectivity Index IC50/EC50” value is >100 and the EC50 turned out to be 1000 nM. In series [2], the IC50 at 6 days is > 100000 nM.
Consider `[N-]=[N+]=NC1C[C@@H](n2cc(F)c(N)nc2=O)O[C@H]1CO` (stereo partly drawn) [L-3′-A-5-FddC, β-L-(3′-azido)-2′,3′-dideoxy-5-fluorocytosine], for which, in the series with HIV, the “Selectivity Index IC50/EC50” value was >344 and the EC50 amounted to 290 nM. In addition, in series [1], the IC50 was > 100000 nM. Besides, in the series on HIV-1 (strain LAV), the “Selectivity Index IC50/EC50” value is >2647 and the half-maximal effective concentration (EC50) was found to be 50 nM. Further, the IC50 at 6 days in series [2] is > 100000 nM.
